US9770461B2, “Tailored glycopolymers as anticoagulant heparin mimetics” (California Institute of Technology, priority 2013, dated 2017)

Key:
Type in all cases: biochemical
citrated human plasma [1] = test: Activated partial thromboplastin time (APTT) analysis
Method: Plasma/anticoagulant samples were prepared by mixing 300 μL of the heparin standard or glycopolymer (150 μg/mL) in 0.9% saline and 2.7 mL of citrated human plasma. The tube was inverted 3 times to mix the sample thoroughly. Samples were analyzed by the UCLA Clinical & Translational Research Laboratory using a Sysmex® CA-1500 Coagulation Analyzer (Siemens AG, Erlangen, Germany). Clotting time in the absence of an anticoagulant was determined using 0.9% saline solution water (300 μL). Each clotting assay was performed in triplicate.

Factor Xa (FXa) = test: Chromogenic anti-FXa assay in the presence of antithrombin III; details: with ATIII
Method: The BIOPHEN Heparin Anti-Xa (2 stages) USP/EP kit (Aniara) was used to determine factor Xa activity. This chromogenic anti-Xa method for measuring homogeneous heparin in purified systems is in compliance with Pharmacopoeias (USP, EP) and FDA guidelines. All reagents were prepared according to manufacturer's instructions and incubated at 37° C. for 15 min. Varying concentrations of heparin (Neoparin) or glycopolymers 1-4 (40 μL) and antithrombin (40 μL) were added to a microcentrifuge tube, mixed, and incubated at 37° C. for 2 min. Factor Xa (40 μL) was added to the solution, incubated at 37° C. for exactly 2 min, and then the factor Xa chromogenic substrate (40 μL) was added. After 2 min, the reaction was quenched with citric acid (20 g/L, 240 μL), and the absorbance was measured at 405 nm. The sample blank was obtained by mixing the reagents in reverse order, and the resulting value was deducted from the absorbance values measured in the assay.
All reagents were prepared according to the manufacturer's instructions and incubated at 37° C. for 15 min. […] Absorbance at 405 nm was measured on a Uvikon XL spectrophotometer. […] The sample blank value was deducted from the absorbance measured for the corresponding assay.

citrated human plasma [2] = test: Prothrombin time (PT) analysis; details: 300 μL of 150 μg/mL sample in 2.7 mL citrated human plasma
Method: Samples were prepared by mixing 300 μL of the heparin standard or glycopolymer (150 μg/mL) in 0.9% saline with 2.7 mL citrated human plasma. The tube was inverted 3 times to mix the sample thoroughly. Samples were analyzed by the UCLA Clinical & Translational Research Laboratory using a Sysmex® CA-1500 Coagulation Analyzer (Siemens AG, Erlangen, Germany). Clotting time in the absence of an anticoagulant was determined using 0.9% saline solution water (300 μL). Each clotting assay was performed in triplicate.

**Q.** For `CO[C@H]1O[C@H](COS(=O)(=O)O)[C@@H](O[C@@H]2O[C@@H](C(=O)O)[C@@H](O[C@H]3O[C@H](COS(=O)(=O)O)[C@@H](O[C@@H]4O[C@H](C(=O)O)[C@@H](O[C@H]5O[C@H](COS(=O)(=O)O)[C@@H](O)[C@H](O)[C@H]5NS(=O)(=O)O)[C@H](O)[C@H]4O)[C@H](OS(=O)(=O)O)[C@H]3NS(=O)(=O)O)[C@H](O)[C@H]2OS(=O)(=O)O)[C@H](O)[C@H]1NS(=O)(=O)O` [Arixtra], which “APTT” value (citrated human plasma [1]; 300 μL of 150 μg/mL sample in 2.7 mL citrated human plasma) is on record?
**A.** Its value is 78.3 ± 0.4 s.

**Q.** What about the “effect on APTT (in words)” value (citrated human plasma [1]; compared to saline control) of the same compound?
**A.** The value was “increased only the APTT”.

**Q.** What about the IC50 (Factor Xa (FXa)) of the same compound?
**A.** The IC50 was 11 ± 0.1 nM.

**Q.** And the “PT” value (citrated human plasma [2])?
**A.** The value was 15.1 ± 0.3 s.
